Measurements taken from ChEMBL document CHEMBL4619782, “The Structural Basis for Nonsteroidal Anti-Inflammatory Drug Inhibition of Human Dihydrofolate Reductase” (J Med Chem, 2020).

Legend:
Dihydrofolate reductase = target: T1, Dihydrofolate reductase (Homo sapiens, UniProt P00374); test: Inhibition of human DHFR in presence of DHF and NADPH by UV-vis spectrometry by Lineweaver-Burk plot analysis
T1 sequence (P00374 whole entry): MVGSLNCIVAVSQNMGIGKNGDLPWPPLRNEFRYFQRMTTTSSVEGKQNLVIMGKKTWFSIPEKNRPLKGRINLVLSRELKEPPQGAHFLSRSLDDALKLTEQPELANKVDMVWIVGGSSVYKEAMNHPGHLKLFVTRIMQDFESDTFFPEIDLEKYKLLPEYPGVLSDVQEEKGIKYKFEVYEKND

[1] = Inhibition of Escherichia coli DHFR
[2] = target: Bifunctional purine biosynthesis protein ATIC (Homo sapiens, UniProt P31939); test: Inhibition of AICAR transformylase (unknown origin)
Bifunctional purine biosynthesis protein ATIC, sequence (P31939 whole entry): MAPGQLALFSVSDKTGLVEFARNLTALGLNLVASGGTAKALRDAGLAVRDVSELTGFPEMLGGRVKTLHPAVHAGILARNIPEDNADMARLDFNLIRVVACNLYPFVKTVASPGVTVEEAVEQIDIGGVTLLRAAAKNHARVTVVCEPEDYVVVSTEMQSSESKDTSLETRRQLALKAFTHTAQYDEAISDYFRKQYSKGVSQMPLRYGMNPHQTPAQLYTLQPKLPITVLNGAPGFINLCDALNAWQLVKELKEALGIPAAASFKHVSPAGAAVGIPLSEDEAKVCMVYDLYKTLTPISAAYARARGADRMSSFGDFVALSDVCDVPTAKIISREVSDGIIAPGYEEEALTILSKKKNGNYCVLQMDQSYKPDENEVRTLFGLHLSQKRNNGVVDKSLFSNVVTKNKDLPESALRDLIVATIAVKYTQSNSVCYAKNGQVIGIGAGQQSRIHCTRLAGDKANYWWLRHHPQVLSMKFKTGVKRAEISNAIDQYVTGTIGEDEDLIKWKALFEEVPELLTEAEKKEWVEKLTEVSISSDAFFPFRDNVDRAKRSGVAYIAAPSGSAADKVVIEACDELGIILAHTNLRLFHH

[3] = Selectivity index, ratio of Ki for Escherichia coli DHFR to Ki for human DHFR
[4] = Inhibition of Lactobacillus casei DHFR; set-up: species or system Lacticaseibacillus casei
[5] = Selectivity index, ratio of Ki for Lactobacillus casei DHFR to Ki for human DHFR

SMILES | Ki (Dihydrofolate reductase) | other results
CCc1cccc2c3c([nH]c12)C(CC)(CC(=O)O)OCC3 (configuration not stated) [ETODOLAC] | 1800 µM | 
N=C(N)NC(=N)NCCc1ccccc1 [PHENFORMIN] | 140 µM | IC50 [1]: 170 µM
O=C(O)CCC(=O)c1ccc(-c2ccccc2)cc1 [FENBUFEN] | 360 µM | 
Nc1ccc(C(=O)N[C@@H](CCC(=O)O)C(=O)O)cc1 | 180 µM | 
O=C(O)c1cc(/N=N/c2ccc(S(=O)(=O)Nc3ccccn3)cc2)ccc1O [SULFASALAZINE] |  | Ki [2]: 22 µM
O=C(O)Cc1ccccc1Nc1c(Cl)cccc1Cl [DICLOFENAC] | 160 µM | 
O=C(O)CNC(=O)c1ccccc1 [HIPPURIC ACID] | 17000 µM | 
Cc1cccc(Nc2ccccc2C(=O)O)c1C [MEFENAMIC ACID] | 72 µM | 
CN(C)C(=N)NC(=N)N [METFORMIN] | 18000 µM | IC50 [1]: 17900 µM
Nc1ccnc(N)n1 [DIAMINOPYRIMIDINE] |  | Ratio Ki [3]: 10; Ki [4]: 1800 µM; Ki [1]: 1800 µM; Ratio Ki [5]: 10

Second part, led by results:

Ki (Dihydrofolate reductase) | SMILES | other results
34 µM | O=C(O)c1cc(-c2ccc(F)cc2F)ccc1O [DIFLUNISAL] | 
7000 µM | COc1ccc2cc([C@H](C)C(=O)O)ccc2c1 [NAPROXEN] | 
560 µM | CC(C)Cc1ccc(C(C)C(=O)O)cc1 (configuration not stated) [IBUPROFEN] | 
3400 µM | COc1ccc2cc([C@@H](C)C(=O)O)ccc2c1 | 
2800 µM | N[C@@H](Cc1c[nH]c2ccccc12)C(=O)O [TRYPTOPHAN] | IC50 (Dihydrofolate reductase): 6500 µM
48 µM | O=C(O)c1cc(-c2ccccc2)ccc1O | 
